Reference: patent US20200009134A1, “Method and Compound for Modifying Circadian Clock” (Gritscience Biopharmaceuticals Co., Ltd., priority 2017, published 2020)

Experiments:
[1] = tested on: U2OS cells expressing Per2-luciferase; assay: Circadian rhythm of U2OS cells expressing Per2-luciferase; format: cell-based, human; settings: for Phenotype: phase of the circadian rhythm / Phenotype: Period shortening: Cay10576 15 μM, dinaciclib 10 nM, Cdk/Crk inhibitor 10 nM, n=4 (FIG. 1b, 1c); for Phenotype: Period lengthening: IKBKB inhibitors, all at 10 μM, n=5 (FIG. 1a)
Protocol: (a) IKBKB inhibitors. The concentration of all the inhibitors was 10 μM, n=5. (b) IKBKE inhibitors.
The above experiments were conducted with the drug added to the culture media from the beginning.

SCN explants = assay: Circadian rhythm of SCN explants from Per2::Luciferase mice; format: cell-based, mouse; settings: applied at CT12; p<0.01, n=8
Excerpt: U2OS cells are just cultured cells, while the SCN is the master clock in mammals. We dissected the SCN from mice expressing the Per2::Luciferase gene which faithfully reported the circadian rhythm (Yoo et al., 2004).

[2] = tested on: U2OS cells expressing Per2-luciferase; assay: Circadian rhythm of U2OS cells expressing Per2-luciferase; format: cell-based, human
[3] = applied from the beginning of the assay

Structure (SMILES)	Phenotype: phase of the circadian rhythm [1]	Phenotype: Period shortening [1, 3]	Phenotype: Period lengthening [1]	also measured
COc1cc2ncn(-c3cc(OCc4ccccc4S(C)(=O)=O)c(C#N)s3)c2cc1OC [Cay10576]	delay	Period shortening, 0.3 ± 0.060 h; phase	–	Phenotype: Period shortening ([1]; applied from the beginning of the assay, listed as Cayl0576): 0.3 h
CC(C)c1[nH]n(-c2c(Cl)cccc2Cl)c2nc(Cc3ccc(OCCO)cc3)nc(=O)c1-2 [Cdk/crk inhibitor, 1-(2,6-dichlorophenyl)-6-[[4-(2-hydroxyethoxy)phenyl]methyl]-3-propan-2-yl-2H-pyrazolo[3,4-d]pyrimidin-4-one]	delay	Period shortening, 0.5 ± 0.074 h; phase	–	–
CCc1cnn2c(NCc3ccc[n+]([O-])c3)cc(N3CCCC[C@H]3CCO)nc12 [Dinaciclib]	–	Period shortening, 0.6 ± 0.050 h; phase	–	Phase advance of SCN explants (SCN explants): 2.488 ± 0.7391 h; Phenotype: Period shortening ([1]; applied from the beginning of the assay, listed as dinaciclib): 0.6 h; Increase of amplitude [1, 3]: 1.78 fold; Phase delay ([2]; applied at CT6, p<0.001, n=5): 7.543 ± 0.6185 h; Phase delay ([2]; applied at CT12, p<0.0001, n=5): 5.808 ± 0.5455 h; Phase delay ([2]; applied at CTO, p<0.01, n=5): 4.092 ± 0.9062 h; Phase advance ([2]; introduced at CT18): 1.7 ± 0.81 h
NC(=O)Nc1sc(-c2ccc(F)cc2)cc1C(N)=O [Ikk2 inhibitor iv, 2-(carbamoylamino)-5-(4-fluorophenyl)thiophene-3-carboxamide]	–	–	Period lengthening, 3.16 ± 0.167 h	–
O=C(Nc1cc(C(F)(F)F)cc(C(F)(F)F)c1)c1cc(Cl)ccc1O [Ikk2 inhibitor v, N-[3,5-bis(trifluoromethyl)phenyl]-5-chloro-2-hydroxybenzamide]	–	–	Period lengthening, 1.84 ± 0.192 h	–
NC(=O)Nc1sc(-c2ccccc2)cc1C(N)=O [Ikk2 inhibitor vi, 2-[(aminocarbonyl)amino]-5-phenyl-3-thiophenecarboxamide]	–	–	Period lengthening, 1.25 ± 0.149 h	–
